The test system of one series is mbVEGFR2 mRNA. The experiment in a line: RT-PCR of mbVEGFR2 mRNA in mouse MS-1 cell line. In kind it is cell-based. An excerpt: Because VEGFR2_MOe13 decreases mbVEGFR2 and increases sVEGFR2, it is expected that VEGFR2_MOe13 can inhibit angiogenesis and lymphangiogenesis in vivo. To study the effect of VEGFR2_MOe13 in animal models, moVEGFR2_MOe13 was created that targets the exon13-intron13 junction of the mouse VEGFR2 gene. By RT-PCR analysis, it was found moVEGFR2_MOe13 increased sVEGFR2 mRNA and decreased mbVEGFR2 mRNA in the mouse MS-1 cell line (FIG. 7A). […] FIGS. 7(f, g) show the mean area of corneal neovascularization and lymphangiogenesis respectively (n=13-16). Risk factors (p-value) were calculated by two-tail student's t-test (*: p<0.05, **p<0.01, ***p<0.001). Error bar is ±s.e.m.
Each morpholino oligomer was purchased from Gene Tools (Philomath, Oreg.). The sequences of each morpholino oligomer and primers for PCR are listed in supplemental Table. […] The cells were washed three times and fluorescence was detected by a FACScan Analyzer (BD Biosciences, San Jose, Calif.). […]
cDNAs were synthesized from 400 ng total RNA using Omniscript RT kit (Qiagen, Valencia, Calif.) and Oligo-dT primer(dT20) according to the manufacturer's instructions. Real-time PCR was performed using QuantiTect SYBR Green PCR Kit (Qiagen, Valencia, Calif.) and 1 μl of cDNA. […]

The next series deals with mbVEGFR2 protein. Put plainly: Western blot for mbVEGFR2 from mouse retinal protein after intravitreous injection. The class given is in vivo. The following applies: 2 μl of 100 ng/μl intravitreously on day 0 and day 3, western blot on day 4. An excerpt: (§1) To administer morpholinos in vivo, morpholino conjugated with a dendrimer at the 3′ position (vivo-morpholino) was used for animal experiments. It should be understood that this technique is merely exemplary, and any other method of administration is considered to be within the present scope. […] Next, the protein level of mbVEGFR2 and sVEGFR2 in the retina and the ocular solution was examined by western blot. Consistent with real-time PCR results, moVEGFR2_MOe13 decreased mbVEGFR2 protein in the retina (FIG. 7C) and increased sVEGFR2 protein in the ocular solution (FIG. 7D).
(§2) To examine whether moVEGFR2_MOe13 could work in the mouse eye, on day 0 and day 3 2 μl of 100 ng/μl moVEGFR2_MOe13 or STD_MO or DPBS were injected intravitreously. On day 4, retinal total RNA was extracted with RNeasy mini kit with DNaseI treatment. sVEGFR2 and mbVEGFR2 mRNA expression were determined by the method described above. For western blot of mbVEGFR2, on day 4, retina was dissolved in RIPA buffer. For western blot of sVEGFR2, on 4 day, intraocular solution was obtained from 6 eyes by pipette. After centrifuge, supernatant was used for further experiment. For western blot, biotin-conjugated anti-VEGFR2 (BAF644, R&D Systems, Minneapolis, Minn.) was used at 1 μg/μl.
A general note: In western blotting, separated proteins are transferred to a membrane and probed.

The subject of a further series is sVEGFR2/mbVEGFR2 mRNA. The experiment in a line: Real-time PCR of mouse retinal total RNA after intravitreous injection. In kind it is in vivo. The following applies: 2 μl of 100 ng/μl intravitreously on day 0 and day 3, retina on day 4, vivo-morpholino.
Source text: as §1, §2
Background: Quantitative PCR measures a nucleic acid by following its amplification.

For a further series, the system named is sVEGFR2 protein. The experiment in a line: Western blot for sVEGFR2 from mouse ocular solution after intravitreous injection. In kind it is in vivo. The following applies: 2 μl of 100 ng/μl intravitreously on day 0 and day 3, western blot on day 4.
Source text: as §1, §2

Consider 1 substance from patent US20170218375A1, “MORPHOLINOS, MORPHOLINO UPREGULATING, AND ASSOCIATED METHODS” (University of Utah Research Foundation, priority 2011, published 2017).

{Dendrimer} = dendrimer conjugate (vivo-morpholino)

For the substance “5′-cacccagggatgcctccatacCTAG-3′ (antisense CACCCAGGGATGCCTCCATACCTAG; all phosphorodiamidate morpholino (PMO), 3' {Dendrimer}) [moVEGFR2_MOe13, morpholino that targets the exon13-intron13 junction of the mouse VEGFR2 gene; in vivo conjugated with a dendrimer (vivo-morpholino)]”, the “mbVEGFR2 mRNA by RT-PCR” value in the series with mbVEGFR2 mRNA was “decreased”. Also, the “mbVEGFR2 protein in the retina” value in the series with mbVEGFR2 protein is given as “decreased”. The “sVEGFR2/mbVEGFR2 mRNA ratio in retina” value in the series on sVEGFR2/mbVEGFR2 mRNA was “significantly increased”. The “sVEGFR2 protein in the ocular solution” value in the series on sVEGFR2 protein was “increased”.
